“Also recorded” adds a separate entry of the source. Read-outs that look alike come from different tables or passages of the source. Values belong to the compound of their own block, whether it stands above or below them.
Key:
[1] = target: T1, Constitutive androstane receptor (CAR) (Homo sapiens, UniProt Q14994); assay: In vitro CAR activation screening assay (UGT1A1 promoter gtPBREM-pGL4 luciferase reporter in Hep3B-gtPBREM cells); format: cell-based; conditions: for activation at 10 µM: read-out: CAR Activation Fold
T1 construct: The pGL4-gtPBREM plasmid was transfected into Hep3B cells; endogenous in cells
T1 sequence (Q14994 1-352): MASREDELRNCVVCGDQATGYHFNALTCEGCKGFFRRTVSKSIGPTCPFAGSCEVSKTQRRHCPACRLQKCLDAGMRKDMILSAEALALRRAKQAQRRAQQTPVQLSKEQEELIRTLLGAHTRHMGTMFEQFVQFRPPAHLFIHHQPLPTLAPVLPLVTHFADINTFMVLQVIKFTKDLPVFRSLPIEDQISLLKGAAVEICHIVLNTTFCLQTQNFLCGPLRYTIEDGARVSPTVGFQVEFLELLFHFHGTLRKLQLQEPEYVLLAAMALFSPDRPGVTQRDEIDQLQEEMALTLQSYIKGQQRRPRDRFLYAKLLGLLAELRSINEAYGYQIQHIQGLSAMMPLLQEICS
From the text: Until now, there is no commercially available high throughput screening method for CAR activation. Traditionally, CAR activation can be detected in western blots by its downstream signals such as UGT1A1, MRP2 or CYP2B6. […] However, this method was slow and pricy. In order to rapidly screen all the compounds for CAR activation at less cost, an in vitro CAR activation screening assay was developed: DNA was extracted from Hep3B cells and UGT1A1 promoter was obtained using PCR amplification. Ligation between UGT1A1 promoter and pGL4 vector was performed and the plasmid was amplified via E. coli replication. The desired plasmid was extracted from E. coli and transfected into Hep3B. The desired colony bearing UGT1A1 promoter-pGL4 plasmid was selected by neomycin. CAR activation was measured by adding tested compounds to Hep3B for several hours and luminescence was measured. Higher activation will get higher luminescence readout. This assay system was validated with two different CAR agonists: CITCO (direct agonist) and scoparone (an indirect agonist). […] Different concentration of scoparone at 1, 5, 10 and 20 μM had been tested either for luciferase assay or downstream UGT1A1 and MRP2 expression (data not shown) and 10 μM was selected to be the best condition for the following work.
After successfully establishing the in vitro assay, all of the coumarin compounds were subjected to the screening (at 10 μM) and their SAR was discussed. Although the reporter system can successfully identify CAR-activating compounds under 8 h and display better efficiency and sensitivity compared with western blots, it only presented a medium luciferase response. According to previous studies, CITCO was reported to only moderately enhance human CAR (less than 2-fold), compared with the enhance provided by TCPOBOP for murine CAR (5- to 10-fold) in luciferase reporter assays. […] Another possibility for the medium response in our reporter system might be the contribution of the whole gtPBREM element which might include response-suppressive elements that was used and the single nucleotide variation of DR3 element which was reported to slightly reduce the original UGT1A1 activity.
The genomic DNA was isolated from Hep3B cells using Wizard® Genomic DNA Purification Kit (Promega, Fitchburg, WI, USA). The promoter region of UGT1A1 gene, gtPBREM element, was amplified by AccuPrime^TM Taq DNA Polymerase High Fidelity Kit (Invitrogen, MA, USA). The sequence of the amplified element was confirmed by DNA sequencing company and cloned into pGL4 luciferase reporter vector. The pGL4-gtPBREM plasmid was transfected into Hep3B cells. The stable pGL4-gtPBREM transfected Hep3B cells, Hep3B-gtPBREM cells, were established after G418 selection. The luciferase activity represented of CAR activation ability was measured using individual established clone. Further, CAR-shRNA was obtained from the Genomic Research Center and transfected into Hep3B-gtPBREM cells. The transient transfected shCAR-Hep3B-gtPBREM cells were used for further luciferase assays.
The Hep3B-gtPBREM cells and shCAR-Hep3B-gtPBREM cells (1.5 × 10^5 cells/well) were seeded into 12-well plates for overnight then pre-determined concentration compounds were added for desired time. After treatment, transfected cells were washed twice in PBS, lysated with 1× passive lysis buffer and luciferase intensity of equal amount of cell lysate was measured by a Synergy HT Multi-Mode Microplate Reader (BioTek, Winooski, VT, USA).

[2] = Table 3, 10 μM, (luminescence of compound − luminescence of scoparone)/luminescence of scoparone × 100%
[3] = Table 1, 10 μM, (luminescence of compound − luminescence of scoparone)/luminescence of scoparone × 100%
[4] = Table 2, 10 μM, (luminescence of compound − luminescence of scoparone)/luminescence of scoparone × 100%

Structure (SMILES): COc1cc2oc(=O)ccc2c(OC)c1OC [Compound 54, 5,6,7-trimethoxycoumarin]
activation at 10 µM [1, 2]: -19%

Structure (SMILES): COc1cc2oc(=O)ccc2c(OC)c1O [Compound 55, fraxinol]
activation at 10 µM [1]: -17%

Structure (SMILES): O=c1ccc2cc(OC(F)(F)F)ccc2o1 [Compound 11, 6-Trifluoromethoxycoumarin]
activation at 10 µM [1, 3]: -34%
melting point: 83 to 85 °C

Structure (SMILES): CCCCOc1ccc2ccc(=O)oc2c1 [Compound 23]
activation at 10 µM [1]: -51%

Structure (SMILES): CCCCOc1cc2ccc(=O)oc2cc1OCCCC [Compound 46, 6,7-Di-n-butoxycoumarin]
activation at 10 µM [1, 4]: -39%
melting point: 77 to 79 °C

Structure (SMILES): CCCCOc1ccc2oc(=O)ccc2c1 [Compound 14]
activation at 10 µM [1, 3]: 37%

Structure (SMILES): CCCCCCOc1cc2ccc(=O)oc2cc1OCCCCCC [Compound 49, 6,7-Dihexoxycoumarin]
activation at 10 µM [1, 4]: -5%

Structure (SMILES): COc1cc2ccc(=O)oc2c2c1OCO2 [Compound 59, 6-Methoxy-7,8-methylenedioxycoumarin]
CAR activation compared with scoparone ([1]; 10 μM): superior CAR activating activity than scoparone
increased CAR activation fold ([1]; 10 μM, compared to scoparone): 36%
activation at 10 µM [1, 2]: 36%

Structure (SMILES): C=CCOc1ccc2oc(=O)ccc2c1 [Compound 13]
activation at 10 µM [1, 3]: -17%

Structure (SMILES): COc1cc2oc(=O)ccc2cc1OC1OC(CO)C(O)C(O)C1O (stereo not shown) [Compound 52, isoscopolin]
CAR activation compared with scoparone ([1]; 10 μM): superior CAR activating activity than scoparone
activation at 10 µM [1, 4]: 35%

Structure (SMILES): C=CCOc1ccc2ccc(=O)oc2c1 [Compound 22]
activation at 10 µM [1]: -46%

Structure (SMILES): C=CCOc1cccc2oc(=O)ccc12 [Compound 4]
activation at 10 µM [1, 3]: -15%

Structure (SMILES): CCCCOc1cccc2oc(=O)ccc12 [Compound 5]
activation at 10 µM [1, 3]: -9%

Structure (SMILES): C=CCOc1cc2ccc(=O)oc2cc1OCC=C [Compound 44, 6,7-Dialloxycoumarin]
activation at 10 µM [1, 4]: -18%
melting point: 84 to 85 °C

Structure (SMILES): O=c1ccc2ccc(OC(F)(F)F)cc2o1 [Compound 20, 7-Trifluoromethoxycoumarin]
activation at 10 µM [1, 3]: 18%
melting point: 69 to 71 °C

Structure (SMILES): CC(C)CCOc1cc2ccc(=O)oc2cc1OCCC(C)C [Compound 48, 6,7-Di-isopentoxycoumarin]
activation at 10 µM [1, 4]: -61%

Structure (SMILES): COc1cc(OC)c2ccc(=O)oc2c1OC [Compound 56]
activation at 10 µM [1, 2]: -14%

Structure (SMILES): CC(C)=CCOc1cccc2ccc(=O)oc12 [Compound 32]
activation at 10 µM [1, 3]: 2%

Structure (SMILES): COc1cc2ccc(=O)oc2cc1O[C@@H]1O[C@H](CO)[C@@H](O)[C@H](O)[C@H]1O [Compound 53, scopolin]
CAR activation compared with scoparone ([1]; 10 μM): superior CAR activating activity than scoparone
activation at 10 µM [1, 4]: 17%

Structure (SMILES): COc1cccc2ccc(=O)oc12 [Compound 28, 8-methoxycoumarin]
activation at 10 µM [1, 3]: -8%

Structure (SMILES): CC(C)=CCCC(C)=CCCC(C)=CCOc1ccc2oc(=O)ccc2c1 [Compound 17]
activation at 10 µM [1, 3]: -41%

Structure (SMILES): CC(C)=CCOc1ccc2ccc(=O)oc2c1 [Compound 24]
activation at 10 µM [1, 3]: -35%

Structure (SMILES): CC(C)=CCOc1ccc2oc(=O)ccc2c1 [Compound 15]
activation at 10 µM [1, 3]: 22%

Structure (SMILES): CCCOc1cc2ccc(=O)oc2cc1OCCC [Compound 45]
activation at 10 µM [1, 4]: -37%

Structure (SMILES): COc1cc2ccc(=O)oc2cc1O [Compound 38, scopoletin]
activation at 10 µM [1, 4]: -1%

Structure (SMILES): O=c1ccc2cccc(O)c2o1 [Compound 27, 8-hydroxycoumarin]
activation at 10 µM [1, 3]: 40%

Structure (SMILES): C=CCOc1cccc2ccc(=O)oc12 [Compound 30]
activation at 10 µM [1, 3]: -34%

Structure (SMILES): COc1cc2oc(=O)ccc2cc1O [Compound 37, isoscopoletin]
activation at 10 µM [1, 4]: -10%

Structure (SMILES): CC(=O)Oc1cccc2ccc(=O)oc12 [Compound 29]
activation at 10 µM [1, 3]: -33%

Structure (SMILES): CCOc1cc2ccc(=O)oc2cc1OCC [Compound 42]
activation at 10 µM [1, 4]: -26%

Structure (SMILES): CCCCOc1cccc2ccc(=O)oc12 [Compound 31, 8-n-Butoxycoumarin]
activation at 10 µM [1, 3]: 4%

Structure (SMILES): O=c1ccc2cc(O)ccc2o1 [Compound 9, 6-hydroxycoumarin]
activation at 10 µM [1, 3]: -8%

Structure (SMILES): COc1cc(OC)c2ccc(=O)oc2c1O [Compound 57, 5,7-dimethoxy-8-hydroxycoumarin]
CAR activation compared with scoparone ([1]; 10 μM): comparable CAR activation effects to scoparone; also recorded: superior CAR activating activity than scoparone
activation at 10 µM [1, 2]: 2%

Now from value to compound, other results behind:

activation at 10 µM [1, 3]: 6%
Structure (SMILES): O=c1ccc2c(O)cccc2o1 [Compound 1, 5-hydroxycoumarin]

activation at 10 µM [1, 3]: -30%
Structure (SMILES): CC(C)=CCCC(C)=CCOc1cccc2ccc(=O)oc12 [Compound 33]

activation at 10 µM [1, 3]: -9%
Structure (SMILES): COc1ccc2ccc(=O)oc2c1 [Compound 19, 7-methoxycoumarin]

activation at 10 µM [1, 3]: -20%
Structure (SMILES): COc1cccc2oc(=O)ccc12 [Compound 2, 5-methoxycoumarin]

activation at 10 µM [1, 4]: -50%
Structure (SMILES): O=c1ccc2cc3c(cc2o1)OCCO3 [Compound 41]

activation at 10 µM [1, 2]: 12%
Structure (SMILES): COc1c2c(c3oc(=O)ccc3c1OC)OCO2 [Compound 60, 5,6-dimethoxy-7,8-methylenedioxycoumarin]
CAR activation compared with scoparone ([1]; 10 μM): good activity; also recorded: superior CAR activating activity than scoparone

activation at 10 µM [1, 3]: -22%
Structure (SMILES): CC(=O)Oc1ccc2oc(=O)ccc2c1 [Compound 12]

activation at 10 µM [1, 4]: -11%
Structure (SMILES): CC(=O)Oc1cc2ccc(=O)oc2cc1OC(C)=O [Compound 43]

activation at 10 µM [1, 3]: -29%
Structure (SMILES): CC(C)=CCCC(C)=CCCC(C)=CCOc1ccc2ccc(=O)oc2c1 [Compound 26]

activation at 10 µM [1, 4]: -22%
Structure (SMILES): O=c1ccc2cc(O)c(O)cc2o1 [Compound 35, esculetin]

activation at 10 µM [1, 3]: -37%
Structure (SMILES): CC(=O)Oc1ccc2ccc(=O)oc2c1 [Compound 21]

activation at 10 µM [1, 4]: -17%
Structure (SMILES): Cc1cc2ccc(=O)oc2cc1C [Compound 36]

activation at 10 µM [1, 2]: 0%
Structure (SMILES): COc1cc2ccc(=O)oc2c(OC)c1OC [Compound 58, 6,7,8-trimethoxycoumarin]
CAR activation compared with scoparone ([1]; 10 μM): comparable CAR activation effects to scoparone

activation at 10 µM [1, 4]: 7%
Structure (SMILES): O=c1ccc2cc3c(cc2o1)OCO3 [Compound 40, ayapin]

activation at 10 µM [1, 3]: 2%
Structure (SMILES): CC(C)=CCCC(C)=CCCC(C)=CCOc1cccc2oc(=O)ccc12 [Compound 8]

activation at 10 µM [1, 3]: -1%
Structure (SMILES): O=c1ccc2ccc(O)cc2o1 [Compound 18, umbelliferone]

activation at 10 µM [1, 3]: 32%
Structure (SMILES): COc1ccc2oc(=O)ccc2c1 [Compound 10, 6-methoxycoumarin]

activation at 10 µM [1, 3]: -13%
Structure (SMILES): CC(C)=CCCC(C)=CCOc1ccc2ccc(=O)oc2c1 [Compound 25, aurapten]

activation at 10 µM [1, 4]: -32%
Structure (SMILES): CC(C)=CCC/C(C)=C/COc1cc2ccc(=O)oc2cc1OC/C=C(\C)CCC=C(C)C [Compound 51, 6,7-Digeranoxycoumarin]

activation at 10 µM [1, 3]: -32%
Structure (SMILES): CC(=O)Oc1cccc2oc(=O)ccc12 [Compound 3]

activation at 10 µM [1, 3]: 19%
Structure (SMILES): CC(C)=CCCC(C)=CCCC(C)=CCOc1cccc2ccc(=O)oc12 [Compound 34]

activation at 10 µM [1, 3]: -18%
Structure (SMILES): CC(C)=CCCC(C)=CCOc1cccc2oc(=O)ccc12 [Compound 7]

activation at 10 µM [1, 3]: 18%
Structure (SMILES): CC(C)=CCCC(C)=CCOc1ccc2oc(=O)ccc2c1 [Compound 16]

Source: PMC7796031, “Studies of Coumarin Derivatives for Constitutive Androstane Receptor (CAR) Activation” (Molecules, 2020)
